For nine compounds, Ki results are on record in patent US8791272B2, “Pyrazole compounds as CRTH2 antagonists” (Boehringer Ingelheim International GmbH, priority 2011, dated 2014).

The target of this experiment is human CRTH2 receptor (Homo sapiens (Human), UniProt Q9Y5Y4). Description: CRTH2 receptor radioligand binding assay (SPA, [3H]-PGD2 displacement). The note with it: [3H]-PGD2 1 nM, CHO-K1-hCRTH2 cell membranes, SPA format, 3 h room temperature. On the procedure:
The binding of CRTH2 antagonists is determined using membranes prepared from Chinese hamster ovary cells (CHO-K1 cells) transfected with the human CRTH2 receptor (CHO-K1-hCRTH2 cells, Perkin Elmer, Cat No ES-561-C). To produce cell membranes the CHO-K1-hCRTH2 cells are cultured in suspension in CHO SFMII medium supplemented with 400 μg/ml G418. The cells are harvested by centrifugation at 300 g for 10 min at room temperature. The cell pellet is resuspended in Phosphate Buffer Saline (PBS) including a protease inhibitor mix (Complete, Roche) and adjusted to a concentration of 10E7 cells/ml. The CHO-K1-hCRTH2 cells are disrupted by nitrogen […] to obtain the membrane preparation. Cell debris is removed by centrifugation (500 g at 4° C., 30 min) and the supernatant is transferred into fresh tubes followed by a second centrifugation at 40000 g for 1 h at 4° C. to sediment the membranes. The membranes are suspended in SPA incubation buffer (50 mM Tris HCl, 10 mM MgCl2, 150 mM NaCl, 1 mM EDTA, pH 7.4) without bovine serum albumin, homogenized by passing through a single use needle (Terumo, 23G×1″), and stored in aliquots at −80° C.
The CRTH2 receptor binding assay is performed in a scintillation proximity assay (SPA) format with the radioligand [^3H]-PGD2 (Perkin Elmer, NET616000MC). CHO-K1-hCRTH2 cell membranes are again homogenized by passing through a single use needle (Terumo, 23G×1″) and diluted in SPA incubation buffer in suitable concentrations (0.5-10 μg protein/well). The SPA assay is set up in 96 well microtiter plates (Perkin Elmer, CatNo. 6005040) in SPA incubation buffer with a final volume of 200 μl per well and final concentration of 50 mM Tris-HCl, 10 mM MgCl2, 150 mM NaCl, 1 mM EDTA pH 7.4, 0.1% bovine serum albumin). The SPA assay mixture contains 60 μl of the membrane suspension, 80 μl of Wheat Germ Agglutinin coated PVT beads (GE Healthcare, RPNQ-0001, 0.3 mg/well), 40 μl of [3H]-PGD2 diluted in SPA buffer to a final concentration of 1 nM (50 000 dpm) and 20 μl of the test compound (dissolved in dimethylsulfoxid). The SPA assay mixture is incubated for 3 h at room temperature. Bound radioactivity is determined with a scintillation counter (Micro Beta Trilux, Wallac).
The binding of [^3H]-PGD2 to CHO-K1-hCRTH2 cell membranes is determined in the absence (total binding, Bo) and presence (non-specific binding, NSB) of unlabelled PGD2 (1 μM, Cayman Chemical, Cat No 12010) or a reference CRTH2 antagonist (10 μM CAY10471, Cayman Chemical, Cat No 10006735).
Determination of the affinity of a test compound is calculated by subtraction of the non-specific binding (NSB) from the total binding (Bo) or the binding in the presence of the test compound (B) at a given compound concentration. […] The Bo-NSB value is set to 0% inhibition.

As usually defined, the Ki is the equilibrium dissociation constant of an inhibitor or competing ligand from its target.

Sequence of human CRTH2 receptor (Q9Y5Y4 whole entry): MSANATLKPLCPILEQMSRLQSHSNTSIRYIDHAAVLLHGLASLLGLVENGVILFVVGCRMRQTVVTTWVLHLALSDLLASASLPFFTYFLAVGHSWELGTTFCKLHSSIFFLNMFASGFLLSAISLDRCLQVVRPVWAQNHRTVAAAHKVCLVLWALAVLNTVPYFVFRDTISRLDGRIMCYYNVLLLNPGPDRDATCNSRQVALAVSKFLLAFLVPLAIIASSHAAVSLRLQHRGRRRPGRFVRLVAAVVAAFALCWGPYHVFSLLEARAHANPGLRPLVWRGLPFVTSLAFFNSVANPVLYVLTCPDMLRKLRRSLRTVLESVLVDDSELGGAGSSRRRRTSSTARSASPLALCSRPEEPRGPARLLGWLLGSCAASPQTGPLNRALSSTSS

As for `CCCc1nn(Cc2ccc(NC(=O)c3ccc(C(F)(F)F)cc3C)cc2)c(C(C)C)c1CC(=O)O` [Example 2.36], the Ki was determined as 0.7 nM. Consider `CCCc1nn(Cc2ccc(NC(=O)c3ccc(Cl)cc3)cc2)c(C(C)C)c1CC(=O)O` [Example 2.37], for which the affinity corresponds to a Ki of 0.4 nM. Turning to `CCc1nn(Cc2ccc(OCc3ccc(Cl)c(C(F)(F)F)c3)cc2)c(CC)c1CC(=O)O` [Example 13.7], the Ki stood at 4.8 nM. With `CCCc1nn(Cc2ccc(NC(=O)c3ccccc3)cc2)c(C(C)C)c1CC(=O)O` [Example 2.39] the figure was 1.6 nM. With `CCCc1nn(Cc2ccc(NC(=O)c3ccc(C(F)(F)F)cc3)cc2)c(C(C)C)c1CC(=O)O` [Example 2.41] the figure was 0.2 nM. Compound `CCCc1nn(Cc2ccc(NC(=O)c3ccc(Cl)c(Cl)c3)cc2)c(C(C)C)c1CC(=O)O` [Example 2.40] yielded a Ki of 0.2 nM. With `Cc1nn(Cc2ccc(/C=C/c3ccc(C(F)(F)F)cc3)cc2)c(C)c1CC(=O)O` [Example 12.2, (3,5-Dimethyl-1-{4-[(E)-2-(4-trifluoromethyl-phenyl)-vinyl]-benzyl}-1H-pyrazol-4-yl)-acetic acid] the figure was 56.3 nM. The value for `CCCc1nn(Cc2ccc(NC(=O)c3ccc(Cl)cc3C)cc2)c(C(C)C)c1CC(=O)O` [Example 2.38] was 1 nM; that for `CCCc1nn(Cc2ccc(NC(=O)c3ccc4ccccc4c3)cc2)c(C(C)C)c1CC(=O)O` [Example 2.42] was 0.1 nM.
